Publication PMC3382824, “Antioxidative Characteristics of Anisomeles indica Extract and Inhibitory Effect of Ovatodiolide on Melanogenesis” (2012)

Target: mushroom tyrosinase
Test: spectrophotometric dopachrome assay (L-DOPA substrate, […] nm)
Assay type: biochemical

SMILES: C=C1C(=O)OC2C=C(C)CC3C=C(CCC=C(C)CCC12)C(=O)O3 (stereo not shown) [ovatodiolide]
- IC50: 253 µM
